The test system of this assay is BDF1 mice, P388 leukemia ip, median survival T/C. As to the kind of experiment: NCI In Vivo Anticancer Drug Screen. Data for tumor model P388 Leukemia (intraperitoneal) in B6D2F1 (BDF1) mice. As to conditions: endpoint: median survival time, higher = longer survival. The method, boiled down: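 Transplantable tumour in mice; compound vs vehicle dosing; survival scored; ratio of treated to control reported.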

The mark [1] stands for this setting: dose: 100.0 mg/kg/injection, schedule: Q01DX009 (ip), vehicle: saline with Tween-80.
The mark [2] stands for this setting: dose: 100.0 mg/kg/injection, schedule: Q04DX003 (ip), vehicle: saline.
The mark [3] stands for this setting: dose: 200.0 mg/kg/injection, schedule: Q01DX009 (ip), vehicle: saline with Tween-80.
Setting [4] is: dose: 200.0 mg/kg/injection, schedule: Q04DX003 (ip), vehicle: saline.
[5] abbreviates: dose: 400.0 mg/kg/injection, schedule: Q01DX009 (ip), vehicle: saline with Tween-80.
[6] abbreviates: dose: 400.0 mg/kg/injection, schedule: Q04DX003 (ip), vehicle: saline.
[7] abbreviates: dose: 100.0 mg/kg/injection, schedule: Q04DX003 (ip), vehicle: Klucel (hydroxypropylcellulose) (HPC).
The mark [8] stands for this setting: dose: 200.0 mg/kg/injection, schedule: Q04DX003 (ip), vehicle: Klucel (hydroxypropylcellulose) (HPC).
The mark [9] stands for this setting: dose: 400.0 mg/kg/injection, schedule: Q04DX003 (ip), vehicle: Klucel (hydroxypropylcellulose) (HPC).

SMILES strings stand for the structures. “And” between values parts separate entries of the source, which are not always exact repeats. Identical values can stand only once. Toxic doses and inconclusive results are not listed. Starred links: 1 amine or outer side, 2 acyl side, 3 side chain; linkers in the order of their positions; H or OH if unused. Positions of bridges follow the written chain, without caps; N, C: chain ends. Non-standard residues stand in square brackets, D forms with d. Residues, ends and D or L forms follow the SMILES beside them. Chains are numbered I, II in the order given. Actinocin(1to9) = Cc1c2oc3c(C)ccc(C(=O)[*:2])c3nc-2c(C(=O)[*:1])c(N)c1=O; NMeV = CN[CH](C(=O)O)C(C)C; Aze = O=C(O)[CH]1CCN1; Sar = CNCC(=O)O

As to `CCOC(=O)CN(CC)C(=O)NC12CC3CC(CC(C3)C1)C2`, the T/C (dose: 100.0 mg/kg/injection, schedule: Q01DX009 (ip), vehicle: Klucel (hydroxypropylcellulose) (HPC)) is 100 % of control; the T/C (dose: 200.0 mg/kg/injection, schedule: Q01DX009 (ip), vehicle: Klucel (hydroxypropylcellulose) (HPC)) is 103 % of control; the T/C (dose: 400.0 mg/kg/injection, schedule: Q01DX009 (ip), vehicle: Klucel (hydroxypropylcellulose) (HPC)) was 102 % of control.

For `C#CC1(OCC2CN(c3ccccc3)C(=O)O2)CCCCC1` (stereo not given), the T/C reads like this: under setting [1], 90 % of control; under setting [2], 100 % of control; under setting [3], 100 % of control; under setting [4], 100 % of control; under setting [5], 109 % of control; under setting [6], 100 % of control.

Consider `O=C(CCC(O)c1ccccc1)NCc1ccccc1` (stereo not given), for which the T/C was 104 % of control (dose: 100.0 mg/kg/injection, schedule: Q01DX001 (ip), vehicle: saline with Tween-80); 100 % of control (dose: 200.0 mg/kg/injection, schedule: Q01DX001 (ip), vehicle: saline with Tween-80); 90 % of control (dose: 400.0 mg/kg/injection, schedule: Q01DX001 (ip), vehicle: saline with Tween-80).

`Cc1c2oc3c(C)ccc(C(=O)NC4C(=O)NC(C(C)C)C(=O)N5CCCC5C(=O)N(C)CC(=O)N(C)C(C(C)C)C(=O)OC4C)c3nc-2c(C(=O)NC2C(=O)NC(C(C)C)C(=O)N3CCC3C(=O)N(C)CC(=O)N(C)C(C(C)C)C(=O)OC2C)c(N)c1=O` (stereo not given) (I: TV[Aze][Sar][NMeV] / II: TVP[Sar][NMeV]; ester I:1-I:C, II:1-II:C; linker I:N-II:N via Actinocin(1to9); configuration not given here): the T/C is, setting by setting: (dose: 0.26 mg/kg/injection, schedule: Q04DX003 (ip), vehicle: saline) 201 % of control; (dose: 0.3 mg/kg/injection, schedule: Q04DX003 (ip), vehicle: saline + alcohol) 265 % of control and 168 % of control; (dose: 0.4 mg/kg/injection, schedule: Q04DX003 (ip), vehicle: saline) 250 % of control; (dose: 0.45 mg/kg/injection, schedule: Q04DX003 (ip), vehicle: saline + alcohol) 256 % of control and 223 % of control; (dose: 0.6 mg/kg/injection, schedule: Q04DX003 (ip), vehicle: saline + alcohol) 230 % of control and 159 % of control; (dose: 0.6 mg/kg/injection, schedule: Q04DX003 (ip), vehicle: saline) 373 % of control. Moreover, the T/C (dose: 0.9 mg/kg/injection, schedule: Q04DX003 (ip), vehicle: saline + alcohol) is 123 % of control and 219 % of control; the T/C (dose: 0.9 mg/kg/injection, schedule: Q04DX003 (ip), vehicle: saline) is 551 % of control; the T/C (dose: 1.2 mg/kg/injection, schedule: Q04DX003 (ip), vehicle: saline + alcohol) was 97 % of control and 117 % of control; the T/C (dose: 1.3 mg/kg/injection, schedule: Q04DX003 (ip), vehicle: saline) is 551 % of control; the T/C (dose: 12.5 micrograms/kg/injection, schedule: Q01DX009 (ip), vehicle: saline + alcohol) was 197 % of control; the T/C (dose: 25.0 micrograms/kg/injection, schedule: Q01DX009 (ip), vehicle: saline + alcohol) was 218 % of control. Moreover, the T/C was 263 % of control (dose: 50.0 micrograms/kg/injection, schedule: Q01DX009 (ip), vehicle: saline + alcohol); 205 % of control (dose: 75.0 micrograms/kg/injection, schedule: Q04DX003 (ip), vehicle: saline + alcohol); 270 % of control (dose: 100.0 micrograms/kg/injection, schedule: Q01DX009 (ip), vehicle: saline + alcohol); 265 % of control (dose: 112.5 micrograms/kg/injection, schedule: Q01DX009 (ip), vehicle: saline + alcohol); 212 % of control (dose: 150.0 micrograms/kg/injection, schedule: Q01DX009 (ip), vehicle: saline + alcohol); 226 % of control and 153 % of control (dose: 150.0 micrograms/kg/injection, schedule: Q04DX003 (ip), vehicle: saline + alcohol). Also, the T/C reads like this: (dose: 200.0 micrograms/kg/injection, schedule: Q01DX009 (ip), vehicle: saline + alcohol) 622 % of control; (dose: 225.0 micrograms/kg/injection, schedule: Q01DX009 (ip), vehicle: saline + alcohol) 105 % of control; (dose: 300.0 micrograms/kg/injection, schedule: Q01DX009 (ip), vehicle: saline + alcohol) 95 % of control; (dose: 300.0 micrograms/kg/injection, schedule: Q04DX003 (ip), vehicle: saline + alcohol) 250 % of control and 197 % of control; (dose: 450.0 micrograms/kg/injection, schedule: Q01DX009 (ip), vehicle: saline + alcohol) 94 % of control; (dose: 600.0 micrograms/kg/injection, schedule: Q04DX003 (ip), vehicle: saline + alcohol) 385 % of control and 388 % of control. The T/C (dose: 1200.0 micrograms/kg/injection, schedule: Q04DX003 (ip), vehicle: saline + alcohol) is 104 % of control.

For `CCC(=O)NC(N)=S`, the T/C is 100 % of control (dose: 12.5 mg/kg/injection, schedule: Q04DX003 (ip), vehicle: Klucel (hydroxypropylcellulose) (HPC)); 100 % of control (dose: 25.0 mg/kg/injection, schedule: Q04DX003 (ip), vehicle: Klucel (hydroxypropylcellulose) (HPC)); 100 % of control (dose: 50.0 mg/kg/injection, schedule: Q04DX003 (ip), vehicle: Klucel (hydroxypropylcellulose) (HPC)).

Take `CCN(CC)c1nc(N(C)C)nc(N(C)C)n1`: the T/C (dose: 50.0 mg/kg/injection, schedule: Q01DX009 (ip), vehicle: saline with Tween-80) is 105 % of control; the T/C under setting [1] was 99 % of control; the T/C under setting [3] is 104 % of control; the T/C under setting [5] is 117 % of control.

Take `CCCCC(CCC)(CCN)CCCC`: the T/C is 100 % of control (dose: 1.0 mg/kg/injection, schedule: Q01DX009 (ip), vehicle: Klucel (hydroxypropylcellulose) (HPC)); 110 % of control (dose: 2.0 mg/kg/injection, schedule: Q01DX009 (ip), vehicle: Klucel (hydroxypropylcellulose) (HPC)); 105 % of control (dose: 4.0 mg/kg/injection, schedule: Q01DX009 (ip), vehicle: Klucel (hydroxypropylcellulose) (HPC)); 115 % of control (dose: 8.0 mg/kg/injection, schedule: Q01DX009 (ip), vehicle: Klucel (hydroxypropylcellulose) (HPC)).

On to `C=CCNC(=S)Nc1cc(Cl)ccc1OC`, for which the T/C runs as follows: under setting [7], 109 % of control; under setting [8], 95 % of control; under setting [9], 95 % of control.

Consider `CCN(CCN)c1cccc(C)c1`, for which the T/C is 100 % of control (dose: 25.0 mg/kg/injection, schedule: Q04DX003 (ip), vehicle: saline sonified); 120 % of control (dose: 50.0 mg/kg/injection, schedule: Q04DX003 (ip), vehicle: saline sonified); 100 % of control (dose: 100.0 mg/kg/injection, schedule: Q04DX003 (ip), vehicle: saline sonified).

On to `CC(=O)O[C@H]1CC[C@@]2(C)C(=CC[C@H]3[C@@H]4CC[C@H](O)[C@@]4(C)CC[C@@H]32)C1`, for which the T/C is 104 % of control under setting [7], 100 % of control under setting [8] and 90 % of control under setting [9].

Regarding `Nc1ccc(OCCNS(=O)(=O)c2cccc(S(=O)(=O)F)c2)c(Cl)c1`, the T/C was 107 % of control (dose: 25.0 mg/kg/injection, schedule: Q01DX009 (ip), vehicle: saline); 104 % of control (dose: 50.0 mg/kg/injection, schedule: Q01DX009 (ip), vehicle: saline); 103 % of control (dose: 50.0 mg/kg/injection, schedule: Q04DX003 (ip), vehicle: saline); 114 % of control (dose: 100.0 mg/kg/injection, schedule: Q01DX009 (ip), vehicle: saline); 103 % of control under setting [2]; 105 % of control (dose: 200.0 mg/kg/injection, schedule: Q01DX009 (ip), vehicle: saline). Also, the T/C by setting is: under setting [4], 103 % of control; under setting [6], 100 % of control.
